This note sets out measurements from patent US10986838B2, “Herbicides” (SYNGENTA PARTICIPATIONS AG, priority 2016, dated 2021).

Common to all, as to format: in vivo
Experiment [1] relates to Alopecurus myosuroides (ALOMY). As to the kind of experiment: Post-emergence herbicidal activity (B2). The conditions noted are these: Test B2a, 1000 g/ha, evaluated after 13 days, 5=total damage to plant, 0=no damage to plant. The method, boiled down:
(§1)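 Plants were grown from seed in standard soil for 8 days in a glasshouse (24/16 °C day/night, 14 h light, 65% humidity), then sprayed with compound formulated in acetone/water (50:50) containing 0.5% Tween 20. Damage was scored after 13 days on a 0–5 scale (5 = total damage).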

Experiment [2] deals with Setaria faberi (SETFA). As to the kind of experiment: Post-emergence herbicidal activity (B2). The conditions noted are these: Test B2a, 1000 g/ha, evaluated after 13 days, 5=total damage to plant, 0=no damage to plant. An outline of the steps:
as §1

The test system of experiment [3] is Echinochloa crus-galli (ECHCG). As to the kind of experiment: Post-emergence herbicidal activity (B2). Conditions: Test B2a, 1000 g/ha, evaluated after 13 days, 5=total damage to plant, 0=no damage to plant. An outline of the steps:
as §1

Experiment [4] deals with Triticum aestivium (TRZAW). As to the kind of experiment: Post-emergence herbicidal activity (B2). Conditions: Test B2a, 1000 g/ha, evaluated after 13 days, 5=total damage to plant, 0=no damage to plant. The method, boiled down: as §1
Experiment [5] concerns Lolium perenne (LOLPE). As to the kind of experiment: Post-emergence herbicidal activity (B2). The conditions noted are these: Test B2a, 1000 g/ha, evaluated after 13 days, 5=total damage to plant, 0=no damage to plant. An outline of the steps:
as §1

The test system of experiment [6] is Avena fatua (AVEFA). As to the kind of experiment: Post-emergence herbicidal activity (B2). The conditions noted are these: Test B2a, 1000 g/ha, evaluated after 13 days, 5=total damage to plant, 0=no damage to plant. The method, boiled down:
as §1

For experiment [7], the system named is Alopecurus myosuroides (ALOMY). As to the kind of experiment: Pre-emergence herbicidal activity (B1). The conditions noted are these: Test 1a, 1000 g/ha, evaluated after 13 days, 5=total damage to plant, 0=no damage to plant. The method, boiled down: (§2)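 After one day of cultivation, soil pots were treated pre-emergence by spray with active ingredient in acetone/water (50:50) and 0.5% Tween 20. Evaluation at 13 days used a 0–5 scale, where 5 meant total plant damage.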

Experiment [8] has as its system Setaria faberi (SETFA). As to the kind of experiment: Pre-emergence herbicidal activity (B1). The conditions noted are these: Test 1a, 1000 g/ha, evaluated after 13 days, 5=total damage to plant, 0=no damage to plant. The method, boiled down:
as §2

Experiment [9] relates to Echinochloa crus-galli (ECHCG). As to the kind of experiment: Pre-emergence herbicidal activity (B1). The conditions noted are these: Test 1a, 1000 g/ha, evaluated after 13 days, 5=total damage to plant, 0=no damage to plant. An outline of the steps: as §2
The test system of experiment [10] is Triticum aestivium (TRZAW). As to the kind of experiment: Pre-emergence herbicidal activity (B1). Conditions: Test 1a, 1000 g/ha, evaluated after 13 days, 5=total damage to plant, 0=no damage to plant. The method, boiled down:
as §2

For experiment [11], the system named is Lolium perenne (LOLPE). As to the kind of experiment: Pre-emergence herbicidal activity (B1). Conditions: Test 1a, 1000 g/ha, evaluated after 13 days, 5=total damage to plant, 0=no damage to plant. An outline of the steps:
as §2

For experiment [12], the system named is Avena fatua (AVEFA). As to the kind of experiment: Pre-emergence herbicidal activity (B1). The conditions noted are these: Test 1a, 1000 g/ha, evaluated after 13 days, 5=total damage to plant, 0=no damage to plant. An outline of the steps: as §2

For `Cc1nc(-c2cncc(OC(F)F)c2)ccc1N` [Compound A4], the ALOMY damage score is 1 in experiment [1] and 0 in [7]. Further, the figures for the SETFA damage score in [2] and in [8] were 4 and 2, respectively. Moreover, the ECHCG damage score is on record as 2 in [3] and 1 in experiment [9]. Further, the TRAZW damage score in [4] turned out to be 1; in [10], 0. Besides, the LOLPE damage score in experiment [5] and in [11] was 1 throughout. In addition, the results for the AVEFA damage score in [6] and in experiment [12] were 3 and 0, respectively.
For the compound `CN(C)c1ccc(-c2cncc(F)c2)nc1C(F)(F)F` [Compound A38, 6-(5-fluoro-3-pyridyl)-N,N-dimethyl-2-(trifluoromethyl)pyridin-3-amine], the ALOMY damage score in experiment [1] was determined as 1; in experiment [7], 0. Also, the SETFA damage score in experiment [2] and in [8] was 5 in each case. Moreover, the ECHCG damage score in experiment [3] and in experiment [9] was 5 throughout. Moreover, the TRAZW damage score is recorded as 1 in experiment [4] and 0 in experiment [10]. Also, the values for the LOLPE damage score in experiment [5] and in experiment [11] were 2 and 0, respectively. Further, the AVEFA damage score in experiment [6] stood at 4; in experiment [12], 2.
Turning to `Fc1cncc(-c2ccc(N3CCOCC3)c(C(F)(F)F)n2)c1` [Compound A39, 4-[6-(5-fluoro-3-pyridyl)-2-(trifluoromethyl)-3-pyridyl]morpholine], the ALOMY damage score in experiment [1] and in [7] was 0 throughout. Besides, the SETFA damage score in [2] worked out at 4; in [8] it was 3. For the same compound, the ECHCG damage score in experiment [3] was 4; in [9], 3. The TRAZW damage score in [4] and in experiment [10] was 0 in each case. Also, the LOLPE damage score in experiment [5] is listed as 2; in experiment [11], 0. Also, the AVEFA damage score in experiment [6] worked out at 2; in experiment [12], 0.
For the compound `Fc1cncc(-c2ccc(N3CCCC3)c(C(F)(F)F)n2)c1` [Compound A40], the ALOMY damage score is recorded as 0 in experiment [1] and 1 in experiment [7]. For the same compound, the results for the SETFA damage score in [2] and in [8] were 5 and 4, respectively. Besides, the ECHCG damage score in experiment [3] turned out to be 5; in [9], 4. The TRAZW damage score in [4] and in experiment [10] was 0 each time. For the same compound, the figures for the LOLPE damage score in experiment [5] and in [11] were 2 and 1, respectively. Besides, the values for the AVEFA damage score in experiment [6] and in [12] were 3 and 1, respectively.
As for `COC(=O)c1nc(-c2cncc(F)c2)ccc1N` [Compound A41], the ALOMY damage score in [1] and in experiment [7] was 0 in each case. The SETFA damage score in experiment [2] and in [8] was 2 in each case. In addition, the ECHCG damage score in experiment [3] and in experiment [9] was 2 in each case. The TRAZW damage score in [4] and in [10] was 0 in each case. Also, the LOLPE damage score in experiment [5] and in experiment [11] was 0 in each case. Moreover, the results for the AVEFA damage score in experiment [6] and in [12] were 1 and 0, respectively.
For `CCCCCCNc1ccc(-c2cncc(F)c2)nc1C(F)(F)F` [Compound A42], the results for the ALOMY damage score in [1] and in [7] were 1 and 0, respectively. For the same compound, the SETFA damage score in experiment [2] and in [8] was 5 each time. Moreover, the ECHCG damage score was found to be 5 in experiment [3] and 4 in experiment [9]. Moreover, the TRAZW damage score is given as 1 in experiment [4] and 0 in [10]. In addition, the LOLPE damage score in experiment [5] is on record as 2; in experiment [11] it was 1. Moreover, the AVEFA damage score in experiment [6] was 3; in [12], 2.
As to `COc1nc(-c2cncc(F)c2)ccc1N` [Compound A43], the ALOMY damage score in experiment [1] and in experiment [7] was 0 each time. Also, the SETFA damage score in [2] stood at 2; in experiment [8], 1. For the same compound, the ECHCG damage score in experiment [3] is reported as 1; in experiment [9], 0. Further, the TRAZW damage score in [4] and in experiment [10] was 0 throughout. The LOLPE damage score in experiment [5] and in experiment [11] was 1 throughout. Further, the values for the AVEFA damage score in [6] and in [12] were 1 and 0, respectively.
Regarding `N#Cc1nc(-c2cncnc2)ccc1N` [Compound A44], the ALOMY damage score in experiment [1] and in experiment [7] was 0 in each case. The SETFA damage score in [2] stood at 4; in [8], 5. The ECHCG damage score in experiment [3] and in experiment [9] was 3 throughout. For the same compound, the TRAZW damage score in experiment [4] and in experiment [10] was 0 each time. Also, the LOLPE damage score in experiment [5] is given as 1; in [11], 2. For the same compound, the AVEFA damage score in experiment [6] was 2; in [12] it was 1.
`Fc1cncc(-c2ccc(NC3CC3)c(C(F)(F)F)n2)c1` [Compound A46]: the ALOMY damage score in [1] stood at 1; in experiment [7], 0. The SETFA damage score in [2] and in experiment [8] was 4 in each case. Also, the ECHCG damage score in [3] is listed as 4; in experiment [9] it was 2. For the same compound, the values for the TRAZW damage score in experiment [4] and in experiment [10] were 1 and 0, respectively. Besides, the LOLPE damage score is recorded as 2 in [5] and 0 in experiment [11]. Moreover, the AVEFA damage score in [6] worked out at 3; in [12] it was 1.
On to `CCCNc1ccc(-c2cncc(F)c2)nc1C(F)(F)F` [Compound A47], for which the ALOMY damage score in [1] and in [7] was 0 each time. The SETFA damage score in experiment [2] was determined as 5; in experiment [8], 4. The ECHCG damage score in experiment [3] is 4; in experiment [9], 3. For the same compound, the TRAZW damage score worked out at 2 in experiment [4] and 0 in experiment [10]. In addition, the LOLPE damage score in experiment [5] was determined as 2; in [11], 1. Besides, the AVEFA damage score in experiment [6] is on record as 2; in experiment [12] it was 1.
`CCCN(CCC)c1ccc(-c2cncc(F)c2)nc1C(F)(F)F` [Compound A48]: the ALOMY damage score in experiment [1] and in [7] was 0 throughout. Besides, the SETFA damage score in experiment [2] was 5; in experiment [8] it was 4. The ECHCG damage score in [3] and in [9] was 4 throughout. Further, the figures for the TRAZW damage score in experiment [4] and in experiment [10] were 1 and 0, respectively. Also, the LOLPE damage score in experiment [5] is listed as 2; in experiment [11] it was 0. Besides, the AVEFA damage score in experiment [6] is 3; in experiment [12], 0.
Consider `Fc1cncc(-c2ccc(NCCc3ccccc3)c(C(F)(F)F)n2)c1` [Compound A49], for which the ALOMY damage score in experiment [1] and in experiment [7] was 0 each time. The SETFA damage score in experiment [2] and in experiment [8] was 5 throughout. The ECHCG damage score in experiment [3] and in [9] was 3 each time. Moreover, the TRAZW damage score in experiment [4] and in [10] was 0 each time. The LOLPE damage score in experiment [5] came to 3; in experiment [11] it was 1. For the same compound, the AVEFA damage score in experiment [6] turned out to be 3; in experiment [12], 1.
Consider `Nc1ccc(-c2cncc(F)c2)nc1-c1ccccc1` [Compound A50], for which the ALOMY damage score in experiment [1] and in experiment [7] was 0 throughout. Besides, the SETFA damage score came to 2 in [2] and 1 in [8]. For the same compound, the ECHCG damage score in experiment [3] and in [9] was 1 each time. The TRAZW damage score in [4] and in experiment [10] was 0 throughout. Moreover, the LOLPE damage score in experiment [5] and in experiment [11] was 0 in each case. In addition, the AVEFA damage score in [6] and in [12] was 0 throughout.
For the compound `Fc1cncc(-c2ccc(NCC3CCC3)c(C(F)(F)F)n2)c1` [Compound A51, N-(cyclobutylmethyl)-6-(5-fluoro-3-pyridyl)-2-(trifluoromethyl)pyridin-3-amine], the ALOMY damage score in [1] and in [7] was 1 in each case. Further, the SETFA damage score in [2] came out at 4; in [8] it was 5. Moreover, the ECHCG damage score in experiment [3] and in experiment [9] was 5 throughout. In addition, the values for the TRAZW damage score in [4] and in experiment [10] were 2 and 1, respectively. The LOLPE damage score in [5] turned out to be 3; in experiment [11] it was 1. The AVEFA damage score in experiment [6] is recorded as 4; in experiment [12], 1.
